Key:
[1] = Expected rise in serum 25-hydroxyvitamin D3 in a human after a single dose; assay type: in vivo; settings: single dose of 50 μg to a human (about 60 kg)
[2] = Example 1: single-dose pharmacokinetics of serum 25-hydroxyvitamin D3 in miniature swine; assay type: in vivo; settings: Yucatan miniature swine
Method: Nine oral vitamin D formulations were prepared according to Table 3 below by homogeneously mixing the identified components in the amounts shown and filling the mixtures into hard gelatin capsules. Formulation 9 is an immediate-release formulation according to the prior art, wherein MIGLYOL 812N is the trade name for caprylic/capric triglycerides, available from CONDEA Chemie GmbH of Cranford, N.J., USA. […] Each group included five animals.
Blood was collected pre-dose, and at 0.5, 1, 2, 4, 6, 8, 12, 24, 48, 96, 168, 240, 336, 432, 504, 576, and 672 hours post dosing. Serum 25-hydroxyvitamin D3 levels were assayed by Liquid Chromatography/Mass Spectrometry/Mass Spectrometry (LC MS/MS).

[3] = 250 μg via intravenous injection, AVG

| SMILES | expected increase in serum levels of 25-hydroxyvitamin D3 [1] | AUC (0-672 hr) ([2]; 250 μg 25-hydroxyvitamin D3 via intravenous injection, AVG) [ng·h/mL] | BA ([2]; 250 μg via intravenous injection) [%] | AUC (0-INF) [2, 3] [ng·h/mL] | Cmax [2, 3] [ng/mL] | T1/2 [2, 3] [h] | Tmax [2, 3] [h] |
| --- | --- | --- | --- | --- | --- | --- | --- |
| C=C1CC[C@H](O)C/C1=C/C=C1\CCC[C@]2(C)[C@@H]([C@H](C)CCCC(C)(C)O)CC[C@@H]12 [25-hydroxyvitamin D3] | about 1.4 ng/ml |  |  |  |  |  |  |
| C=C1CC[C@H](O)C/C1=C/C=C1\CCC[C@]2(C)[C@@H]([C@H](C)CCCC(C)(C)O)CC[C@@H]12 [Group 10, 25-hydroxyvitamin D3] |  | 15038.0 | 100.0 | 16616.1 | 154.9 | 132.4 | 1.5 |

Reference: patent publication US9498486B1, “Method for controlled release oral dosage of a vitamin D compound” (OPKO RENAL, LLC, priority 2007, dated 2016)
